According to patent US7045532B2 (Millennium Pharmaceuticals, Inc., priority 1999, dated 2006):
pKi: −log10 of the molar value. Like-named read-outs stand apart in the source and are kept apart here.

Biological target: T1, ACE-2 (Homo sapiens, UniProt Q9BYF1)
T1 construct: a stop codon inserted after the serine immediately preceding the transmembrane domain; made in house; host or cells: CHO K1 cells (transient transfection, purified from conditioned medium)
Experiment: ACE-2 Competitive Substrate Assay (ACS Assay)
Type: biochemical

[1] = Ki class, compounds tested in 5% DMSO, 12 compound concentrations, Ki=Kiapp/(1+[S]/Km), read-out: Human ACE-2 Activity
[2] = Ki class per key, compounds tested in 5% DMSO, 12 compound concentrations, 25° C., Ki=Kiapp/(1+[S]/Km), read-out: Human ACE-2 Activity
[3] = Table 3, very good ACE-2 inhibiting compounds, species not given, read-out: ACE-2 Activity, Ki
[4] = Ki class, compounds tested in 5% DMSO, 12 concentrations, read-out: Human ACE-2 Activity

T1 sequence (Q9BYF1 18-740 limits assumed): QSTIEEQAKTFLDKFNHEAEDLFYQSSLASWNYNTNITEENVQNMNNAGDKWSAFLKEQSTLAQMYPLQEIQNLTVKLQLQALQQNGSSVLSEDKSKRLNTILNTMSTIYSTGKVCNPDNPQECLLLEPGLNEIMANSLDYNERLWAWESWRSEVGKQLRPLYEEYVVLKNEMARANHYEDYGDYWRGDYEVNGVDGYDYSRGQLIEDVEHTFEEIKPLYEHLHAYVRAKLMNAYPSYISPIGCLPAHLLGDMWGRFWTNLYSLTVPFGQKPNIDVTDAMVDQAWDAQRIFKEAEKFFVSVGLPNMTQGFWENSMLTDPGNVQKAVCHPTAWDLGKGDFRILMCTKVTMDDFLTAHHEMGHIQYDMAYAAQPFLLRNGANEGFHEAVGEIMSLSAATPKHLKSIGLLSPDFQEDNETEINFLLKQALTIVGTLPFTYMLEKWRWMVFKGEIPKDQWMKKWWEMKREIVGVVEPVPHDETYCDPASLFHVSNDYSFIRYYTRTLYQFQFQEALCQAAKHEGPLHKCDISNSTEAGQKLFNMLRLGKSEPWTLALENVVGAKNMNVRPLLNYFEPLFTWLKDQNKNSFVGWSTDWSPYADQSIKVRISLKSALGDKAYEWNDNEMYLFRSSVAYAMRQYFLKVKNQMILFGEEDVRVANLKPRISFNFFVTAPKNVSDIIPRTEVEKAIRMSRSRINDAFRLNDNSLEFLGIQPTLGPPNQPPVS

Row | SMILES | pKi [1] | also measured
1 | CC(C)C[C@H](N[C@@H](Cc1ccc(OCC2COc3ccc(F)cc32)cc1)C(=O)O)C(=O)O (stereo partly drawn) [QW, 2-[1-Carboxy-2-[4-(5-fluoro-2,3-dihydro-benzofuran-3-ylmethoxy)-phenyl]-ethylamino]-4-methyl-pentanoic acid] |  | pKi [2]: > 7.00; pKi [3]: > 7.30
2 | O=C(O)[C@@H]1CCC[C@H](C(=O)O)N1 [H, Pipendine-2,6-dicarboxylic acid] |  | pKi [4]: < 6.30
3 | CC(C)C[C@H](N[C@@H](Cc1cccc(OCc2ccccc2Cl)c1)C(=O)O)C(=O)O [OP, S,S-2-{1-Carboxy-2-[3-(2-chloro-benzyloxy)-phenyl]-ethylamino}-4-methyl-pentanoic acid] | < 6.30 | 
4 | CC(C)C[C@H](N[C@@H](Cc1ccc(C(=O)NCc2ccccc2)cc1)C(=O)O)C(=O)O [QG, 2-[2-(4-Benzylcarbamoyl-phenyl)-1-carboxy-ethylamino]-4-methyl-pentanoic acid] |  | pKi [2]: < 6.30
5 | CC(C)C[C@H](N[C@@H](Cc1cccc(OCc2ccncc2)c1)C(=O)O)C(=O)O [NZ, S,S-2-{1-Carboxy-2-[3-(pyridin-4-ylmethoxy)-phenyl]-ethylamino}-4-methyl pentanoic acid] | < 6.30 | 
6 | O=C(O)[C@@H]1C[C@@H](C(=O)O)N1 [A, Azetidine-2,4-dicarboxylic acid] |  | pKi [4]: < 6.30
7 | CC(C)C[C@H](N[C@@H](Cc1ccc(OCc2csc3ccccc23)cc1)C(=O)O)C(=O)O [QX, 2-{2-[4-(Benzo[b]thiophen3-ylmethoxy)-phenyl]-1-carboxy-ethylamino]-4-methyl-pentanoic acid] |  | pKi [2]: > 7.00
8 | CC(C)C[C@H](N[C@@H](Cc1ccc(OCc2csc3ccc(Cl)cc23)cc1)C(=O)O)C(=O)O [QK, 2-[1-Carboxy-2-[4-(5-chloro-benzo[b]thiophen-3-ylmethoxy)-phenyl]-ethylamino]-4-methyl-pentanoic acid] |  | pKi [2]: > 7.00; pKi [3]: > 7.30
9 | Cc1nc(C[C@H](NC(CC(C)C)C(=O)O)C(=O)O)cs1 (single isomer, unassigned) [GY, 2-[1-Carboxy-2-(2-methyl-thiazol-4-yl)-ethylamino]-4-methyl-pentanoic acid] | < 6.30 | 
10 | CC(C)C[C@H](N[C@@H](Cc1ccc(-c2csc3ccccc23)cc1)C(=O)O)C(=O)O [PA, 2-[2-(4-Benzo[b]thiophen-3-yl-phenyl)-1-carboxy-ethylamino]-4-methyl-pentanoic acid] |  | pKi [2]: > 7.00; pKi [3]: > 7.30
11 | CC(C)C[C@H](N[C@@H](Cc1ccc(-c2cccc(Cl)c2)o1)C(=O)O)C(=O)O [OS, (S), (S)-2-{1-Carboxy-2-[5-(3-chloro-phenyl)-furan-2-yl]-ethylamino}-4-methyl-pentanoic acid] | < 6.30 | 
12 | CC(C)C[C@H](N[C@@H](Cc1ccc(Oc2cc(Cl)cc(Cl)c2)cc1)C(=O)O)C(=O)O [QM] |  | pKi [2]: 6.30 to 7.00
13 | CC(C)C[C@H](N[C@@H](Cc1cc(-c2ccc(Cl)c(Cl)c2)on1)C(=O)O)C(=O)O [QL, 2-[1-Carboxy-2-[5-(3,4-dichloro-phenyl)-isoxazol-3-yl]-ethylamino)-4-methylpentanoic acid] |  | pKi [2]: > 7.00; pKi [3]: 7.00 to 7.30
14 | CC(C)C[C@H](N[C@@H](Cc1ccc(-c2ccc(C(F)(F)F)cc2)o1)C(=O)O)C(=O)O [OM, (S,S)-2-{1-Carboxy-2-[5-(4-trifluoromethyl-phenyl)-furan-2-yl]-ethylamino}-4-methyl-pentanoic acid] | < 6.30 | 
15 | CC(C)CC(N[C@@H](Cc1cncn1Cc1ccc(C(C)(C)C)cc1)C(=O)O)C(=O)O (single isomer, unassigned) [HZ, 2-[2-[3-(4-tert-Butyl-benzyl)-3H-imidazol-4-yl]-1-carboxy-ethylamino]-4-methyl-pentanoic acid] | < 6.30 | 
16 | COC(=O)[C@H](Cc1ccn(C(=O)OC(C)(C)C)n1)N[C@@H](CC(C)C)C(=O)OCc1ccccc1 [ML, 3-[2-(1-Benzyloxycarbonyl3-methyl-butylamino)-2-methoxycarbonyl-ethyl]-pyrazole-1-carboxylicacid tert-butyl ester] | < 6.30 | 
17 | Cc1nc(C[C@H](NC(CC(C)C)C(=O)O)C(=O)O)c(Cc2ccccc2)s1 (single isomer, unassigned) [KC, 2-[2-(5-Benzyl-2-methyl-thiazol-4-yl)-1-carboxy-ethylamino]-4-methyl-pentanoic acid] | < 6.30 | 
18 | CC(C)CC(N[C@@H](Cc1cncn1CC1CCCCC1)C(=O)O)C(=O)O (single isomer, unassigned) [JG, 2-[1-Carboxy-2-(3-cyclohexylmethyl-3H-imidazol-4-yl)-ethylamino]4-methyl-pentanoic acid] | < 6.30 | 
19 | CC(C)CC(N[C@@H](Cc1cncn1Cc1c(Cl)cccc1Cl)C(=O)O)C(=O)O (single isomer, unassigned) [JD, 2-[1-Carboxy-2-[3-(2,6-dichloro-benzyl)-3H-imidazol-4-yl]-ethylamino]4-methyl-pentanoic acid] | < 6.30 | 
20 | CC(C)C[C@H](N[C@@H](Cc1ccc(Oc2ccc(F)cc2)cc1)C(=O)O)C(=O)O [QP, 2-[1-Carboxy-2-[4-(4-fluoro-phenoxy)-phenyl]-ethylamino]-4-methyl-pentanoic acid] |  | pKi [2]: > 7.00; pKi [3]: 7.00 to 7.30
21 | CC(C)CC(NC(Cc1cccc(OCc2ccc(C(F)(F)F)cc2C(F)(F)F)c1)C(=O)O)C(=O)O (stereo not drawn) [OC, 2-{2-[3-(2,4-Bis-trifluoromethyl-benzyloxy)-phenyl]-1-carboxy-ethylamino}-4-methyl-pentanoic acid] | < 6.30 | 

Further lines, with some results ahead:

Row | pKi [1] | SMILES | also measured
22 | < 6.30 | CC(C)C[C@H](N[C@@H](Cc1cccc(-c2cccc3ccccc23)c1)C(=O)O)C(=O)O [MX, (S,S)-2-[1-Carboxy-2-(3-naphthalen-1-yl-phenyl)-ethylamino]-4-methyl-pentanoic acid] | 
23 | 6.30 to 7.00 | CC(C)C[C@H](N[C@@H](Cn1ccn(CC2CC2)c1=O)C(=O)O)C(=O)O [MH, 2-[1-Carboxy-2-(3-cyclopropylmethyl-2-oxo-2,3-dihydro-imidazol-1-yl)-ethylamino]-4-methyl-pentanoic acid] | 
24 | 6.30 to 7.00 | Cc1nc(C[C@H](NC(CC(C)C)C(=O)O)C(=O)O)c(Cc2ccccc2)s1 (single isomer, unassigned) [KB, 2-[2-(5-Benzyl-2-methyl-thiazol-4-yl)-1-carboxy-ethylamino]-4-methyl-pentanoic acid] | 
25 | 6.30 to 7.00 | CC(C)C[C@H](N[C@@H](Cc1csc(-c2cc(Cl)cc(Cl)c2)n1)C(=O)O)C(=O)O [LO, (S,S)-2-{1-Carboxy-2-[2-(3,5-dichlorophenyl)-thiazol-4-yl]-ethylamino}-4-methyl-pentanoic acid] | 
26 | 6.30 to 7.00 | CCOC(=O)[C@H](Cc1cncn1Cc1cc(Cl)cc(Cl)c1)N[C@@H](CC(C)C)C(=O)O [MY, (S,S) 2-{2-[3-(3,5-Dichloro-benzyl)-3H-imidazol-4-yl]-1-ethoxycarbonyl-ethylamino}-4-methyl-pentanoic acid] | 
27 | > 7.00 | CC(C)C[C@H](N[C@@H](CC(=O)Nc1nc2ccc(F)cc2s1)C(=O)O)C(=O)O [MQ, 2-[1-Carboxy-2-(6-fluoro-benzothiazol-2-ylcarbamoyl)-ethylamino]-4-methyl-pentanoic acid] | pKi [3]: > 7.30
28 | > 7.00 | CC(C)C[C@H](N[C@@H](Cc1cncn1Cc1cc(F)cc(F)c1)C(=O)O)C(=O)O [NJ, (S,S) 2-{1-Carboxy-2-[3-(3,5-difluoro-benzyl)-3H-imidazol-4-yl]-ethylamino}-4-methyl-pentanoic acid] | pKi [3]: > 7.30
29 | 6.30 to 7.00 | Cc1ccc(-c2ccc(C[C@H](N[C@@H](CC(C)C)C(=O)O)C(=O)O)o2)cc1 [NO, (S,S)-2[1-Carboxy-2-(5-p-tolyl-furan-2-yl)-ethylamino]-4-methyl-pentanoic acid] | 
30 | 6.30 to 7.00 | Cc1ccc(Cn2cncc2C[C@H](NC(CC(C)C)C(=O)O)C(=O)O)cc1 (single isomer, unassigned) [HH, 2-[1-Carboxy-2-[3-(4-methyl-benzyl)-3H-imidazol-4-yl]-ethylamino)4-methyl-pentanoic acid] | 
31 | 6.30 to 7.00 | CC(C)C[C@H](N[C@@H](Cn1ccn(CCc2ccc(F)cc2)c1=O)C(=O)O)C(=O)O [NK, 2-(1-Carboxy-2-[3-[2-(4-fluoro-phenyl)-ethyl]-2-oxo2,3-dihydro-imidazol-1-yl)-ethylamino]-4-methyl-pentanoic acid] | 
32 | 6.30 to 7.00 | CC(C)C[C@H](N[C@@H](Cn1ccn(C2CCCCC2)c1=O)C(=O)O)C(=O)O [MN, 2-[1-Carboxy-2-(3-cyclohexyl-2-oxo-2,3-dihydro-imidazol-1-yl)-ethylamino]-4-methyl-pentanoic acid] | 
33 | > 7.00 | COC(=O)[C@H](Cc1cncn1Cc1cc(Cl)cc(Cl)c1)N[C@@H](CC(C)C)C(=O)O [KX, (S,S) 2-{2-[3-(3,5-Dichloro-benzyl)-3H-imidazol-4-yl]-1-methoxycarbonyl-ethylamino}-4-methyl-pentanoic acid] | pKi [3]: > 7.30
34 | 6.30 to 7.00 | Cc1cc(C)cc(COc2ccc(C[C@H](N[C@@H](CC(C)C)C(=O)O)C(=O)O)cc2)c1 [KT, 2-[1-Carboxy-2-[4-(3,5-dimethyl-benzyloxy)-phenyl]-ethylamino]-4-methyl-pentanoic acid] | 
35 | 6.30 to 7.00 | CC(C)C[C@H](N[C@@H](Cc1ccc(OCCc2ccccc2)cc1)C(=O)O)C(=O)O [LT, 2-[1-Carboxy-2-(4-phenethyloxy-phenyl)-ethylamino]-4-methyl-pentanoic acid] | 
36 | 6.30 to 7.00 | CC(C)C[C@H](N[C@@H](Cn1ccn(CCc2cccc(F)c2)c1=O)C(=O)O)C(=O)O [NP, 2-(1-Carboxy-2-{3-[2-(3-fluoro-phenyl)-ethyl]-2-oxo2,3-dihydro-imidazol-1-yl]-ethylamino)-4-methyl-pentanoic acid] | 
37 | 6.30 to 7.00 | COc1cccc(C(=O)NC[C@H](N[C@@H](CC(C)C)C(=O)O)C(=O)O)c1 [LZ, 2-[1-Carboxy-2-(3-methoxy-benzoylamino)-ethylamino]-4-methyl-pentanoic acid] | 
